Measured values from patent US9834542B2, “LXR modulators” (BRISTOL-MYERS SQUIBB COMPANY, priority 2013, dated 2017).
One block for each compound: values may come before it.

Target: T1, LXRβ (Homo sapiens, UniProt P55055)
T1 construct: Co-transfection expression plasmids, comprising full-length LXRα (pCMX-h LXRα[…] or LXRβ (pCMX-hLXRβ)); expressed in transfected cells; host or cells: CV-1 African Green Monkey Kidney Cells
T1 sequence (P55055 1-460): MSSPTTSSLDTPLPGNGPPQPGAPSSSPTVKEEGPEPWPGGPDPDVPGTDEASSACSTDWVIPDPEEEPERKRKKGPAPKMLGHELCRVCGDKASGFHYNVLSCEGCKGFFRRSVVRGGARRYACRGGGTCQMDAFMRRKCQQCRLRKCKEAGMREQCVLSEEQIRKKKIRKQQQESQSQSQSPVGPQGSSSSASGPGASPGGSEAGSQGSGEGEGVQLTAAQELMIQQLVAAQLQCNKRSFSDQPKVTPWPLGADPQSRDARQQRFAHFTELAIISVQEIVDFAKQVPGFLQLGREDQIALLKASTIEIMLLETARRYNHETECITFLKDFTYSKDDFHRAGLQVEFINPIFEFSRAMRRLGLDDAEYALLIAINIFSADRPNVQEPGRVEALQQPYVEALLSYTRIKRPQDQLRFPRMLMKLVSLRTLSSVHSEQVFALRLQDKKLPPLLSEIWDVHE
T1 sequence (P19793 1-462 partner): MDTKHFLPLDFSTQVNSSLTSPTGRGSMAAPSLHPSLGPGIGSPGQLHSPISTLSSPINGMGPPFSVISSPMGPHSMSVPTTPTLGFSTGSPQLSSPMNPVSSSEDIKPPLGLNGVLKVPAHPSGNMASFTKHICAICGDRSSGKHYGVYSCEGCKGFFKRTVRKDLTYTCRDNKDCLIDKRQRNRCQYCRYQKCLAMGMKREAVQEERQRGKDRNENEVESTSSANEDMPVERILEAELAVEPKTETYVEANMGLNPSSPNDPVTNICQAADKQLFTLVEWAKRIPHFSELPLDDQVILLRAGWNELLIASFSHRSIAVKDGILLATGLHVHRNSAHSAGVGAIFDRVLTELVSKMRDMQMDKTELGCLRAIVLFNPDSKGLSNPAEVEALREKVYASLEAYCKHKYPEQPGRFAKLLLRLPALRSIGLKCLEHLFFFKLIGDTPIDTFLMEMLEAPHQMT
Test: Co-transfection assay (LXRE luciferase reporter), LXRβ
Assay type: cell-based
Settings: for EC50: CV-1 cells transfected with pCMX-hLXRβ and LXREx1-Tk-Luciferase, 20 hours incubation; for Emax: LXRβ co-transfection, relative to high control 1-(2,4-difluorobenzyl)-2-oxo-6-(4-phenoxyphenyl)-4-(trifluoromethyl)-1,2-dihydropyridine-3-carbonitrile, read-out: % Efficacy
Method in brief: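 CV-1 cells transiently co-transfected with full-length human LXRβ expression plasmid, LXREx1-Tk-luciferase reporter and β-galactosidase control, then exposed to compound for 20 h at 37 °C. Luciferase luminescence read; EC50 from 11-point, ½-log dose–response fit, efficacy relative to high-control agonist maximum.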

Compound: Cc1nc(C(F)(F)F)cn1-c1ccc(-c2cccc(S(C)(=O)=O)c2)cc1-n1nncc1-c1ccc(C#N)cc1 [Example 47, 4-(1-{3′-(methylsulfonyl)-4-[2-methyl-4-(trifluoromethyl)-1H-imidazol-1-yl]biphenyl-3-yl}-1H-1,2,3-triazol-5-yl)benzonitrile]
EC50: 2.54 µM
Emax: 64%

Compound: Cc1nc(-c2cc(-c3ccc(CO)c(S(C)(=O)=O)c3)ccc2-n2cc(C(F)(F)F)nc2C)c(-c2ccc(OC(F)F)c(F)c2)o1 [Example 402, (3′-(5-(4-(difluoromethoxy)-3-fluorophenyl)-2-methyloxazol-4-yl)-4′-(2-methyl-4-(trifluoromethyl)-1H-imidazol-1-yl)-3-(methylsulfonyl)biphenyl-4-yl)methanol]
EC50: 0.043 µM
Emax: 88%

Compound: Cc1nc(C(F)(F)F)cn1-c1ccc(-c2cc(F)c(CO)c(S(C)(=O)=O)c2)cc1-n1nncc1-c1ccc(OC(F)(F)F)c(Cl)c1 [Example 78, {3′-(5-{3-chloro-4-[(trifluoromethyl)oxy]phenyl}-1H-1,2,3-triazol-1-yl)-3-fluoro-5-(methylsulfonyl)-4′-[2-methyl-4-(trifluoromethyl)-1H-imidazol-1-yl]biphenyl-4-yl}methanol]
EC50: 0.102 µM
Emax: 94%

Compound: Cc1nc(-c2cc(-c3cc(F)cc(S(C)(=O)=O)c3)ccc2-n2cc(C(F)(F)F)nc2C)c(-c2ccc3c(c2)OC(F)(F)O3)o1 [Example 463, 5-(2,2-difluorobenzo[d][1,3]dioxol-5-yl)-4-(3′-fluoro-4-(2-methyl-4-(trifluoromethyl)-1H-imidazol-1-yl)-5′-(methylsulfonyl)biphenyl-3-yl)-2-methyloxazole]
EC50: 0.155 µM
Emax: 73%

Compound: Cc1ccc(-c2oc(C)nc2-c2cc(-c3cccc(S(C)(=O)=O)c3)ccc2-n2cc(C(F)(F)F)nc2C)c(Cl)n1 [Example 422, 5-(2-chloro-6-methylpyridin-3-yl)-2-methyl-4-(4-(2-methyl-4-(trifluoromethyl)-1H-imidazol-1-yl)-3′-(methylsulfonyl)biphenyl-3-yl)oxazole]
EC50: 0.11 µM
Emax: 74%

Compound: Cc1nc(C(F)(F)F)cn1-c1ccc(-c2cccc(S(C)(=O)=O)c2)cc1-n1nncc1-c1ccc(OC(F)(F)F)c(Cl)c1 [Example 53, 5-{3-chloro-4-[(trifluoromethyl)oxy]phenyl}-1-{3′-(methylsulfonyl)-4-[2-methyl-4-(trifluoromethyl)-1H-imidazol-1-yl]biphenyl-3-yl}-1H-1,2,3-triazole]
EC50: 0.175 µM
Emax: 90%

Compound: Cc1nc(-c2cc(-c3cc(F)c(CO)c(S(C)(=O)=O)c3)ccc2-n2cc(C(F)(F)F)nc2C)c(-c2ccc(OC(F)(F)F)cc2)o1 [Example 373, [3-fluoro-5-(methylsulfonyl)-4′-[2-methyl-4-(trifluoromethyl)-1H-imidazol-1-yl]-3′-(2-methyl-5-{4-[(trifluoromethyl)oxy]phenyl}-1,3-oxazol-4-yl)biphenyl-4-yl]methanol]
EC50: 0.04 µM
Emax: 97%

Compound: COc1ccc(-c2cnnn2-c2cc(-c3cccc(S(C)(=O)=O)c3)ccc2-n2cc(C(F)(F)F)nc2C)cc1OC(F)F [Example 42, 5-{3-[(difluoromethyl)oxy]-4-(methyloxy)phenyl}-1-{3′-(methylsulfonyl)-4-[2-methyl-4-(trifluoromethyl)-1H-imidazol-1-yl]biphenyl-3-yl}-1H-1,2,3-triazole]
EC50: 1.06 µM
Emax: 43%

Compound: Cc1nc(C(F)(F)F)cn1-c1ccc(-c2cccc(S(C)(=O)=O)c2)cc1-c1oc(CCN2CCCC2)nc1-c1ccc(OC(F)(F)F)cc1 [Example 620, 5-(4-(2-methyl-4-(trifluoromethyl)-1H-imidazol-1-yl)-3′-(methylsulfonyl)-[1,1′-biphenyl]-3-yl)-2-(2-(pyrrolidin-1-yl)ethyl)-4-(4-(trifluoromethoxy)phenyl)oxazole]
EC50: 0.202 µM
Emax: 94%

Compound: Cc1nc(C(F)(F)F)cn1-c1ccc(-c2cccc(S(C)(=O)=O)c2)cc1-c1oc(CCO)nc1-c1ccc(OC(F)(F)F)cc1 [Example 611, 2-(5-(4-(2-methyl-4-(trifluoromethyl)-1H-imidazol-1-yl)-3′-(methylsulfonyl)-[1,1′-biphenyl]-3-yl)-4-(4-(trifluoromethoxy)phenyl)oxazol-2-yl)ethanol]
EC50: 0.554 µM
Emax: 62%

Compound: CCC(F)(F)c1cn(-c2ccc(-c3cccc(S(=O)(=O)N(C)C)c3)cc2-n2nncc2-c2ccc(OC(F)(F)F)cc2)c(C)n1 [Example 182, 4′-[4-(1,1-difluoropropyl)-2-methyl-1H-imidazol-1-yl]-N,N-dimethyl-3′-(5-{4-[(trifluoromethyl)oxy]phenyl}-1H-1,2,3-triazol-1-yl)biphenyl-3-sulfonamide]
EC50: 0.494 µM
Emax: 78%

Compound: Cc1nc(C(F)(F)F)cn1-c1ccc(-c2cccc(S(N)(=O)=O)c2)cc1-n1nncc1-c1ccc(OC(F)(F)F)cc1 [Example 44, 4′-[2-methyl-4-(trifluoromethyl)-1H-imidazol-1-yl]-3′-(5-{4-[(trifluoromethyl)oxy]phenyl}-1H-1,2,3-triazol-1-yl)biphenyl-3-sulfonamide]
EC50: 1.27 µM
Emax: 95%

Compound: Cc1nc(-c2cc(-c3cccc(S(C)(=O)=O)c3)ccc2-n2cc(C(F)(F)F)nc2C)c(-c2ccc(Cl)c(OC(F)F)c2)o1 [Example 458, 5-(4-chloro-3-(difluoromethoxy)phenyl)-2-methyl-4-(4-(2-methyl-4-(trifluoromethyl)-1H-imidazol-1-yl)-3′-(methylsulfonyl)biphenyl-3-yl)oxazole]
EC50: 0.398 µM
Emax: 62%

Further compounds by falling EC50, results first:

EC50: 1.16 µM
Emax: 64%
Compound: Cc1nc(C(F)(F)F)cn1-c1ccc(-c2cccc(S(C)(=O)=O)c2)cc1-n1nncc1Cc1ccc(F)cc1 [Example 124, 5-[(4-fluorophenyl)methyl]-1-{3′-(methylsulfonyl)-4-[2-methyl-4-(trifluoromethyl)-1H-imidazol-1-yl]biphenyl-3-yl}-1H-1,2,3-triazole]

EC50: 1.09 µM
Emax: 63%
Compound: Cc1nc(C(F)(F)F)cn1-c1ccc(-c2cccc(S(C)(=O)=O)c2)cc1-n1nncc1C(=O)c1cccc(C(F)(F)F)c1 [Example 137, (1-{3′-(methylsulfonyl)-4-[2-methyl-4-(trifluoromethyl)-1H-imidazol-1-yl]biphenyl-3-yl}-1H-1,2,3-triazol-5-yl)[3-(trifluoromethyl)phenyl]meth-anone]

EC50: 0.954 µM
Emax: 87%
Compound: Cc1nc(C(F)(F)F)cn1-c1ccc(-c2cccc(S(C)(=O)=O)c2)cc1-n1nncc1-c1ccc(F)cc1F [Example 40, 5-(2,4-difluorophenyl)-1-{3′-(methylsulfonyl)-4-[2-methyl-4-(trifluoromethyl)-1H-imidazol-1-yl]biphenyl-3-yl}-1H-1,2,3-triazole]

EC50: 0.334 µM
Emax: 86%
Compound: CCS(=O)(=O)c1cccc(-c2ccc(-n3cc(C(F)(F)F)nc3C)c(-n3nncc3-c3ccc(OC(F)(F)F)cc3)c2)c1 [Example 215, 1-(3′-(ethylsulfonyl)-4-(2-methyl-4-(trifluoromethyl)-1H-imidazol-1-yl)-[1,1-biphenyl]-3-yl)-5-(4-(trifluoromethoxy)phenyl)-1H-1,2,3-triazole]

EC50: 0.069 µM
Emax: 56%
Compound: Cc1nc(-c2cc(-c3cc(F)c(CO)c(S(C)(=O)=O)c3)ccc2-n2cc(C(F)(F)F)nc2C)c(-c2ccc3c(c2)CCC3)o1 [Example 475, (3′-(5-(2,3-dihydro-1H-inden-5-yl)-2-methyloxazol-4-yl)-3-fluoro-4′-(2-methyl-4-(trifluoromethyl)-1H-imidazol-1-yl)-5-(methylsulfonyl)biphenyl-4-yl)methanol]

EC50: 0.058 µM
Emax: 76%
Compound: Cc1nc(-c2cc(-c3cc(F)c(CO)c(S(C)(=O)=O)c3)ccc2-n2cc(C(F)(F)F)nc2C)c(-c2cc(F)c(OC(F)F)c(F)c2)o1 [Example 457, (3′-(5-(4-(difluoromethoxy)-3,5-difluorophenyl)-2-methyloxazol-4-yl)-3-fluoro-4′-(2-methyl-4-(trifluoromethyl)-1H-imidazol-1-yl)-5-(methylsulfonyl)biphenyl-4-yl)methanol]
